Tests used:
B16 mouse melanoma cells = experiment: Melanin synthesis in B16 mouse melanoma cells (cell based assay); conditions: 6.25 micromolar, 72 hours, melanin in medium read at 530-nm, read-out: % of Control (Melanin Synthesis)
Protocol: This experiment was carried out using a cell based assay.
B16 mouse melanoma cells were utilized in the following experiment to evaluate the efficacy of skin lightening agents. B16 cells were plated in 96-well microtiter plates at a density of 5000 cells per well and cultured overnight in Dulbecco's Modified Eagle's Medium (phenol red free) containing 10% fetal bovine serum and 1% penicillin/streptomycin at 37° C. in the presence of 5% CO2. After 24 hours, the medium was replaced with fresh growth medium containing the treatments. All cultures were incubated for 72 hours at which time melanin was visible in the control treatment. The melanin-containing medium was transferred to a clean 96-well plate and quantified by reading the absorbency at 530-nm. Cell viability was assessed by measurement of lactate dehydrogenase levels to ensure the decrease in melanin was not a result of cellular toxicity.

mushroom tyrosinase = experiment: Mushroom Tyrosinase Assay; type: biochemical; conditions: for tyrosinase activity, % of ethanol control: slope of 475-nm absorbency vs. untreated ethanol control, L-DOPA substrate
Protocol: Mushroom tyrosinase inhibition is indicative of reduction in melanin synthesis, thereby showing skin lightening effect.
Into each well of a 96-well plate, 150 microliters of phosphate buffer (100 mM, pH 7.0), 10 microliters of L-DOPA (L-3, 4-Dihydroxyphenylalanine, 10 mM), and 20 microliters of skin lightening agent (dissolved in ethanol, which is the control) were added. Following an initial measurement of background absorbency at 475-nm, 20 microliters of mushroom tyrosinase (Sigma T-7755; 6050 units/ml) was added and incubated at room temperature.
Absorbency is read at 475-nm over the following time points: 0, 2, 4, and 6.5 minutes. The data is plotted as 475-nm absorbency vs. time (minutes) and the slope of the line is calculated (ΔAbs 475 nm/min). Values are expressed as the percentage of the respective untreated ethanol control reaction. [formula]

Structure (SMILES)	activity at 6.25 µM (B16 mouse melanoma cells)	tyrosinase activity, % of ethanol control (mushroom tyrosinase; 0.1 uM)	tyrosinase activity, % of ethanol control (mushroom tyrosinase; 1 uM)	tyrosinase activity, % of ethanol control (mushroom tyrosinase; 10 uM)	tyrosinase activity, % of ethanol control (mushroom tyrosinase; 100 uM)	skin lightening effectiveness (in words, from tyrosinase data) (mushroom tyrosinase; conclusion drawn from Table 8)
CNC(=O)/C=C\c1ccc(O)cc1O [Resorcinol Amide 1]	13.1%	75.1 % of Control	51.0 % of Control	53.0 % of Control	53.4 % of Control	–
O=c1ccc2ccc(O)cc2o1 [7-Hydroxy Coumarin, 7-hydroxy coumarin]	–	104 % of Control	100 % of Control	108 % of Control	117 % of Control	effective in skin lightening
CCc1ccc(O)cc1O [4-Ethyl Resorcinol]	15.6%	72.7 % of Control	46.3 % of Control	30.8 % of Control	20.7 % of Control	–
COCCNC(=O)/C=C\c1ccc(O)cc1O [Resorcinol Amide 2]	13.7%	84.2 % of Control	59.5 % of Control	58.0 % of Control	57.9 % of Control	–
